# From article PMC11203266, “Continuous evolution of compact protein degradation tags regulated by selective molecular glues” (Science (New York, N.Y.), 2024)
# Key:
# PLK1-SD40 = experiment: Immunoblot, endogenous SD40-tagged PLK1 in HEK293T cells; type: cell-based, human; details: 2 hours of treatment
# From the text: (§1) Next, we evaluated the installation of SD40 at endogenous genomic target genes in mammalian cells using twin prime editing (twin PE) ([54], [75]). We optimized prime editing parameters, including spacer position and prime editor construct ([30]), to insert SD40 at the C-terminus of PLK1 with 26% editing efficiency and 8.8% indel byproducts in HEK293T cells (Fig. 3E, fig. S13), enabling rapid isolation of a homozygous PLK1-SD40 cell line. PLK1 is an essential cell-state regulator ([76]), and complete knockdown for 24 hours is cytotoxic. […] We also used twin prime editing to install SD40 at the N-terminus of BRD4 yielding 7.7% knock-in of SD40 in K562 cells (Fig. 3E, S13) with 4.3% indel byproducts. […] For comparison, we also attempted scarless insertion of SD40 and FKBP12^F36V from the dTag system (324 base pairs) ([17]) at the N-terminus of BRD4 using Cas9 nuclease-directed HDR using two different sgRNAs and a double-strand donor DNA template. […]
# (§2) HEK293T or K562 cells were plated at a density of 1.6 x 10^5 cells/well in a 24-well plate coated with poly-D-lysine (Corning) in 1 mL media (DMEM + 10% FBS for HEK293T cells and RPMI + 10% FBS for K562 cells). […] Protein concentration in clarified lysates was quantified using Pierce BCA Protein Assay Kit (Thermo Scientific) according to the manufacturer’s protocol. […]
# SD40–BRD4 = experiment: Immunoblot, endogenous SD40-tagged BRD4 in K562 cells; type: cell-based, human; details: 24 hrs
# From the text: as §1, §2
# CRBN = CRBN (Homo sapiens, UniProt Q96SW2); experiment: In-cell CRBN engagement NanoBRET; details: for EC50: EC50 CRBN engagement
# Chain of CRBN (Q96SW2 whole entry): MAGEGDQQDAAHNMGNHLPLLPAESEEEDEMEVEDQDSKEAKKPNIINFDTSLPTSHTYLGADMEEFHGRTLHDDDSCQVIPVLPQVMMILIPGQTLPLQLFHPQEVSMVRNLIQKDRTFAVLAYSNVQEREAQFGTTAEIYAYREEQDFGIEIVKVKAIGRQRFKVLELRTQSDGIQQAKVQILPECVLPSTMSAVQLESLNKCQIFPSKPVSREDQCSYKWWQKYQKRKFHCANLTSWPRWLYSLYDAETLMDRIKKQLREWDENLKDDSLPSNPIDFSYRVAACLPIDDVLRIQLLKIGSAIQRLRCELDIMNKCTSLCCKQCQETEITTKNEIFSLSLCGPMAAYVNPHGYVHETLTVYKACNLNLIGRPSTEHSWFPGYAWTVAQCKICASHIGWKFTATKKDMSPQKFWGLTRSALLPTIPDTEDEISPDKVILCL
# Chain of CRBN (Q16531 whole entry partner): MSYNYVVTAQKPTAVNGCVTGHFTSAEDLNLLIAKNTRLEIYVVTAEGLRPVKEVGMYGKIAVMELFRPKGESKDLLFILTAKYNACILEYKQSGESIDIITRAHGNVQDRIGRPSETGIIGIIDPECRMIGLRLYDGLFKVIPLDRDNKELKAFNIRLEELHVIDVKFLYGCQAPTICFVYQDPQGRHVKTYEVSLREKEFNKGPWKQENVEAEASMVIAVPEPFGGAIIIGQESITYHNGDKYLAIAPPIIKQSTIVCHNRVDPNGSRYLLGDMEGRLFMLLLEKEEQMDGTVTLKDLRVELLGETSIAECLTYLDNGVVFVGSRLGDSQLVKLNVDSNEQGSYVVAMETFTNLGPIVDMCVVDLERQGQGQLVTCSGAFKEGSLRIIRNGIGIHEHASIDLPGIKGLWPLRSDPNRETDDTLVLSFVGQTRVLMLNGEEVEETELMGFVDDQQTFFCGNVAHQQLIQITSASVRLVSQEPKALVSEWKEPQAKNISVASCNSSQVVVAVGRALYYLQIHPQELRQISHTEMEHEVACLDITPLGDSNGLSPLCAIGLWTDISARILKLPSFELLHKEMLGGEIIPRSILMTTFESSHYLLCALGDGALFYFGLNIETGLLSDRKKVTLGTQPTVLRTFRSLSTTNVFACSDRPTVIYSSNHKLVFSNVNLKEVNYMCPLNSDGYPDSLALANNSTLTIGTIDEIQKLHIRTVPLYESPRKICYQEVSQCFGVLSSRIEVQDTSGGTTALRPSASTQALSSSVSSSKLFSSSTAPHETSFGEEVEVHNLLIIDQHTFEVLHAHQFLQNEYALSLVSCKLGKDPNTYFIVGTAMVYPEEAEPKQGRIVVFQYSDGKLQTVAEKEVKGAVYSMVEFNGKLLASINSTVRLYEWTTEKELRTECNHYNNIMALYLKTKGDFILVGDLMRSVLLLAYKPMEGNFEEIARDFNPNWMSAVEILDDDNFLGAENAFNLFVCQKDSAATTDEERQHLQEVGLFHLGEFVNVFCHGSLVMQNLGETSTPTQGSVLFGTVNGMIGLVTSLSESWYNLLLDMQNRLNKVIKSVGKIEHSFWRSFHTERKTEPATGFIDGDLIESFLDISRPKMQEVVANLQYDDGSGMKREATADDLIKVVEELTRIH
# Protocol: U2OS or HEK293T cells were transfected with a combination of NanoLuc-CRBN fusion vector (1 μg/ 100,000 cells) and DDB1 expression vector (4 μg/ 100,000 cells) encoded plasmid (Promega N2910) using Lipofectamine 3000 reagent (Thermo Fischer Scientific, L3000015). […] The transfected cells were washed with PBS, trypsinized, and plated in a 384-well white microplate (Corning, 3765) at 3000 cells in 34 μL Opti-MEM I reduced serum medium per well. […] The plates were incubated for 1 hour at 37 °C, 5% CO2. After incubation plates were brought to room temperature and incubated with 3X complete substrate plus inhibitor solution (20 μL) for 3 minutes at room temperature before measuring BRET signal on an EnVision multilabel plate reader with EnVision Manager 1.13 (PerkinElmer). At each liquid handling step, the plates were shaken on a Thermo Fisher combi instrument followed by centrifugation at 100 xg for 1 minute.
# Lipofectamine 2000 was used in place of lipofectamine 3000 for all transfections, 1 μg of pSD192A was included for generating the SD40-PRKRA overexpression sample, and the assay was performed using 2,500 cells per well.
# NanoBRET values for the in-cell CRBN engagement assay were calculated as follows:
# 2) mean corrected NanoBRET ratio mBU = Mean mBU experimental − Mean mBU no-ligand control.
# EC50 values were calculated in GraphPad Prism (v9.5.1), using an inhibitor vs. response variable slope (four parameter) model.
smiles,measurement,setting,value
O=C1CCC(N2C(=O)c3ccc(N4CCOCC4)cc3C2=O)C(=O)N1 (stereo not shown) [PT-179],PLK1 knockdown (in words),PLK1-SD40,robust PLK1 knockdown
same,SD40–BRD4 degradation (in words),SD40–BRD4,robust degradation
same,EC50,CRBN; HEK293T cells,2880 nM
same,EC50,"CRBN; HEK293T cells, No SD40 (fig. S16 protocol)",641 nM
same,EC50,"CRBN; HEK293T cells, SD40–PRKRA low expression (single-copy lentiviral integration)",350 nM
same,EC50,"CRBN; HEK293T cells, SD40–PRKRA overexpression (plasmid transfection)",169 nM
same,EC50,CRBN; U2OS cells,979 nM
same,lower apparent potency than pomalidomide,CRBN; HEK293T and U2OS cells,7 fold
same,increase in apparent affinity for CRBN,CRBN; HEK293T cells overexpressing SD40–PRKRA,3.8 fold
same,increase in apparent affinity for CRBN,CRBN; HEK293T cells stably expressing SD40–PRKRA,1.8 fold
